details: acidic group

SMILES | pKa
C[C@H]([NH3+])CCC(=O)O | 4.13
CC1(C)S[C@H]2[C@@H](NC(=O)Cc3ccccc3)C(=O)N2[C@@H]1C(=O)O | 2.76
[O-]/N=C1\CCCC\C1=N/O | 12.6
O=[N+]([O-])c1ccc([Se](=O)O)cc1 | 4
CC(=O)c1ccc(C(=O)O)s1 | 3
Nc1[nH+]c2nc[nH]c2c(N)[n+]1O | 1
Cc1cc(C)nc([N-]S(=O)(=O)c2ccc(O)cc2)n1 | 9.16
Nc1c[nH+]c(S)nc1N | 2.96
[NH3+]C1(C(=O)O)CCCCC1 | 2.66
CCCCCC(=O)NO | 9.58
Cc1ccc(I)cc1C(=O)O | 3.62
OCO | 12.8
COC(=O)/C=C(\O)c1ccncc1 | 7.51
Nc1cc([O-])ccc1O | 11.2
O=C(O)c1ccc(Br)cc1 | 3.99
CC1(C)CC(=O)CC1=O | 4.2
CCCCCCCCCCc1c(-c2ccccc2)nn(-c2ccccc2)c1O | 6.7
CCCCc1c(-c2ccccc2)nn(-c2ccccc2)c1O | 7.2
N#CC(O)=C(C#N)C#N | 1.9
CCC(=O)/C=N/O | 8.37
O=C(O)c1ccc(Cl)s1 | 3.41
[O-]c1c(O)cccc1O | 11.2
Oc1ccc(/N=N/c2nccs2)c(O)c1 | 1.56
CC(=O)c1cc(C(C)=O)[nH]n1 | 8.98
CC(=N\[O-])/C(C)=N/O | 11.9
CC(C)CC(=O)CC(=O)C(F)(F)F | 6.52

SMILES | pKa
Cc1cccc(C)c1NN=C(C#N)C#N | 6.6
c1ccc(-c2nc3ccccc3[nH]2)nc1 | 12.1
NCc1cccc(S(N)(=O)=O)c1 | 10.1
C[n+]1cccc(C(=O)Cc2ccccc2)c1 | 10.3
O=[N+]([O-])Nc1ccccc1 | 4.74
CC(C)(C(=O)O)C(C#N)c1ccccc1 (stereo unspecified) | 3.95
C=CCc1c(C)nn(C)c1O | 10.5
Cn1nc(/N=N/O)nc1N | 5.36
CC(=O)[n+]1ccc(N(C)C)cc1 | 9.55
Cc1c(Cl)cccc1C(=O)O | 3.43
C[N+](C)(C)NC(=O)c1ccc([N+](=O)[O-])cc1 | 3.11
CCc1cc(CC)c(OC)c(C(=O)NC[C@H]2CCC[NH+]2CC)c1O | 7.24
O=C(O)C(CO)c1ccccc1 (stereo unspecified) | 4.23
CC(C)CCC[NH+](C)CCCNC(=O)/C=N/O | 8.72
OC(O)c1cccnc1 | 13.1
Oc1ccc2cccc(-c3ccccc3)c2c1 | 9.38
N#CC(C#N)=NNc1ccccc1Cl | 5.84
CC1=CC(=O)C=C(C)C1=NO | 8.04
COc1ccc2c3c([nH]c2c1)C(C)NCC3 (stereo unspecified) | 15.6
COc1cc([N+](=O)[O-])ccc1O | 6.83
C[Si](C)(C)CCCC(=O)O | 4.89
CCCCCCCc1c(-c2ccccc2)n[nH]c1O | 9.2
NS(=O)(=O)c1ccc(P(=O)([O-])[O-])cc1 | 10
CNC(=O)c1ncnc2nc[nH]c12 | 8.9
CC1(C)C(=O)NC(=O)C1(C)C | 9.7
NS(=O)(=O)c1nc2ccccc2s1 | 7.8

SMILES | pKa
O=C(C[n+]1cccc2c3ccccc3ccc21)c1ccc([N+](=O)[O-])cc1 | 9.45
O=[Se](O)c1cccc(-c2ccccc2)c1 | 4.87
O=c1ccccc(O)c1O | 6.72
CC[NH+](CC)CCOc1ccccc1C(=O)NO | 8.42
CCOC(=O)COc1ccc(C(=O)c2ccc(O)c(C[NH3+])c2)cc1 | 7.34
O=C1Oc2ccccc2C(=O)C1CC1C(=O)Oc2ccccc2C1=O (stereo unspecified) | 5.5
CC#CC(=O)O | 2.63
N/N=C(\N)c1ncnc2nc[nH]c12 | 10
CC1=C/C(=N\c2ccc(O)cc2)C(C(C)C)=CC1=O | 8.85
[O-]c1ncc2[nH]cnc2n1 | 11.9
N#CCCC(C(=O)O)c1ccccc1 (stereo unspecified) | 3.92
CN(C)Cc1cc(C(C)(C)C)ccc1O | 11.5
O=P(O)(C1CCCCC1)C1CCCCC1 | 3.47
Cc1ccc(C(=O)O)c(Cl)c1 | 3.27
C[NH+](C)Cc1cccc(O)c1 | 8.88
Cn1c(-c2ccccc2O)[nH+]c2ccccc21 | 5.76
CC(S)C(=O)[O-] (stereo unspecified) | 10.1
O=C1CC(=O)NC(=S)[N-]1 | 10.7
COc1cc(C(N)=O)ccc1-c1nc2nn(C)cc2[nH]1 | 12.3
C[C@H]1CC[C@H](C(=O)O)CC1 | 4.89
O=C/C(O)=C/O | 5.03
Nc1nc[nH+]c2c1ncn2CCOCP(=O)(O)O | 1.22
CCc1cc(C(C)C)c(O)cc1C | 10.9
Oc1ccc2nnccc2c1 | 7.52
Oc1ccc(F)cc1CN1CCOCC1 | 10.5

same assay, conditions: basic group

SMILES | pKa
COc1ccnc2ccccc12 | 6.45
Cn1cc(Cl)cn1 | 0.16
Cc1cc(-c2ccccc2)nn2ccnc12 | 4.84
C[C@H]1C[C@@H]2CCC[C@@H]2N1C | 10.1
N#CC(CCN1CCOCC1)(c1ccccc1)c1ccccc1 | 6.09
NCC[n+]1ccc2ccccc2c1 | 6.85
Cn1ccnc1 | 7.15
NCCNCCc1ccccc1 | 9.44
Cc1ccc2cccc(C)c2n1 | 4.1
